Experimental data published in ChEMBL document CHEMBL1201862, “PubChem BioAssay data set” (2004).
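Growth conditions: 96-well plates. Treatment: test compound, 48 hours, 5 concentrations. Analysis: linear interpolation between bracketing concentrations; unreached endpoints set to highest concentration. Abbreviation: GI50, concentration required for 50% inhibition of growth.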 Activity calls are given as the source filed them. No stated cut-off is given here; in the data, active = GI50 up to about 1.1 µM and inactive = higher.

Experiments:
Test in all cases: growth of human tumour cells (NCI), 48 h
[1] = tested on: MCF7
[2] = tested on: UO-31
[3] = tested on: RXF 393
[4] = tested on: DU-145
[5] = tested on: IGROV-1
[6] = tested on: 786-0
[7] = tested on: HT-29
[8] = tested on: Hs-578T
[9] = tested on: NCI-H23
[10] = tested on: NCI-H226
[11] = tested on: SK-MEL-5
[12] = tested on: SF-539
[13] = tested on: HCT-15
[14] = tested on: UACC-62
[15] = tested on: MDA-MB-231
[16] = tested on: SNB-75
[17] = tested on: HOP-62
[18] = tested on: SNB-19
[19] = tested on: NCI-H522
[20] = tested on: SK-MEL-2
[21] = tested on: A549
[22] = tested on: SW-620
[23] = tested on: A498
[24] = tested on: TK-10
[25] = tested on: ACHN
[26] = tested on: CAKI-1
[27] = tested on: SF-295
[28] = tested on: OVCAR-4
[29] = tested on: RPMI-8226
[30] = tested on: MDA-N
[31] = tested on: SK-OV-3
[32] = tested on: Malme-3M
[33] = tested on: NCI-H460
[34] = tested on: MOLT-4
[35] = tested on: KM12
[36] = tested on: T47D
[37] = tested on: NCI/ADR-RES
[38] = tested on: U-251
[39] = tested on: HCC 2998
[40] = tested on: OVCAR-8
[41] = tested on: SR
[42] = tested on: COLO 205
[43] = tested on: EKVX
[44] = tested on: PC-3
[45] = tested on: HL-60
[46] = tested on: SF-268
[47] = tested on: M14
[48] = tested on: CCRF-CEM
[49] = tested on: SN12C
[50] = tested on: SK-MEL-28
[51] = tested on: OVCAR-5
[52] = tested on: MDA-MB-435
[53] = tested on: HCT-116
[54] = tested on: K562
[55] = tested on: OVCAR-3
[56] = tested on: UACC-257
[57] = tested on: LOX IMVI
[58] = tested on: HOP-92

**Q.** Which results are given for `CC(C)C(O)(C(=O)OCN1C(=O)C2C3C=CC(C2C1=O)C1C2C(=O)N(COC(=O)C(O)(C(C)C)C(C)O)C(=O)C2C31)C(C)O` (stereo unspecified)?
**A.** GI50 [1]: > 100 µM (inactive); GI50 [2]: > 100 µM (inactive); GI50 [3]: > 100 µM (inactive); GI50 [4]: > 100 µM (inactive); GI50 [5]: > 100 µM (inactive); GI50 [6]: > 100 µM (inactive); GI50 [7]: > 100 µM (inactive); GI50 [8]: > 100 µM (inactive); GI50 [9]: > 100 µM (inactive); GI50 [10]: > 100 µM (inactive); GI50 [11]: > 100 µM (inactive); GI50 [12]: > 100 µM (inactive); GI50 [13]: > 100 µM; GI50 [14]: > 100 µM (inactive); GI50 [15]: > 100 µM (inactive); GI50 [16]: 0.0275 µM (active); GI50 [17]: > 100 µM (inactive); GI50 [18]: > 100 µM (inactive); GI50 [19]: > 100 µM (inactive); GI50 [20]: > 100 µM (inactive); GI50 [21]: > 100 µM (inactive); GI50 [22]: > 100 µM (inactive); GI50 [23]: 39.7 µM (inactive); GI50 [24]: > 100 µM (inactive); GI50 [25]: > 100 µM (inactive); GI50 [26]: > 100 µM (inactive); GI50 [27]: > 100 µM (inactive); GI50 [28]: > 100 µM (inactive); GI50 [29]: > 100 µM (inactive); GI50 [30]: > 100 µM (inactive); GI50 [31]: > 100 µM (inactive); GI50 [32]: > 100 µM (inactive); GI50 [33]: > 100 µM (inactive); GI50 [34]: > 100 µM (inactive); GI50 [35]: > 100 µM (inactive); GI50 [36]: > 100 µM (inactive); GI50 [37]: > 100 µM (inactive); GI50 [38]: > 100 µM (inactive); GI50 [39]: > 100 µM (inactive); GI50 [40]: > 100 µM (inactive); GI50 [41]: > 100 µM (inactive); GI50 [42]: > 100 µM (inactive); GI50 [43]: > 100 µM (inactive); GI50 [44]: > 100 µM (inactive); GI50 [45]: > 100 µM (inactive); GI50 [46]: > 100 µM (inactive); GI50 [47]: > 100 µM (inactive); GI50 [48]: > 100 µM (inactive); GI50 [49]: > 100 µM (inactive); GI50 [50]: > 100 µM (inactive); GI50 [51]: > 100 µM (inactive); GI50 [52]: > 100 µM (inactive); GI50 [53]: > 100 µM (inactive); GI50 [54]: > 100 µM (inactive); GI50 [55]: > 100 µM (inactive)

**Q.** `Cc1ccc(S(=O)(=O)N(CCNC(=O)c2cccc(O)c2O)c2cc3c4c(c2)Oc2cccc5c2C4(C)c2c(cccc2O3)O5)cc1` was tested. Which GI50 [1] did it give?
**A.** 29.9 µM (inactive)

**Q.** And the GI50 [2]?
**A.** > 100 µM (inactive)

**Q.** What about the GI50 [4] of the same compound?
**A.** > 100 µM (inactive)

**Q.** And the GI50 [5]?
**A.** 5.93 µM (inactive)

**Q.** What about the GI50 [6] of the same compound?
**A.** > 100 µM (inactive)

**Q.** And the GI50 [7]?
**A.** > 100 µM (inactive)

**Q.** What about the GI50 [8] of the same compound?
**A.** > 100 µM (inactive)

**Q.** And the GI50 [9]?
**A.** > 100 µM (inactive)

**Q.** And the GI50 [10]?
**A.** 7.74 µM (inactive)

**Q.** What about the GI50 [11] of the same compound?
**A.** 22.1 µM (inactive)

**Q.** And the GI50 [12]?
**A.** 73.3 µM (inactive)

**Q.** What about the GI50 [13] of the same compound?
**A.** > 100 µM

**Q.** And the GI50 [14]?
**A.** 20.8 µM (inactive)

**Q.** What about the GI50 [15] of the same compound?
**A.** 21.7 µM (inactive)

**Q.** And the GI50 [16]?
**A.** 10.9 µM (inactive)

**Q.** And the GI50 [56]?
**A.** > 100 µM (inactive)

**Q.** What about the GI50 [17] of the same compound?
**A.** 55.6 µM (inactive)

**Q.** And the GI50 [18]?
**A.** > 100 µM (inactive)

**Q.** What about the GI50 [20] of the same compound?
**A.** > 100 µM (inactive)

**Q.** What about the GI50 [21] of the same compound?
**A.** 20.9 µM (inactive)

**Q.** And the GI50 [22]?
**A.** 14.6 µM (inactive)

**Q.** And the GI50 [23]?
**A.** 58.6 µM (inactive)

**Q.** And the GI50 [24]?
**A.** > 100 µM (inactive)

**Q.** What about the GI50 [25] of the same compound?
**A.** > 100 µM (inactive)

**Q.** What about the GI50 [26] of the same compound?
**A.** > 100 µM (inactive)

**Q.** What about the GI50 [27] of the same compound?
**A.** > 100 µM (inactive)

**Q.** What about the GI50 [57] of the same compound?
**A.** 6.08 µM (inactive)

**Q.** What about the GI50 [28] of the same compound?
**A.** > 100 µM (inactive)

**Q.** And the GI50 [29]?
**A.** > 100 µM (inactive)

**Q.** And the GI50 [30]?
**A.** 6.93 µM (inactive)

**Q.** And the GI50 [31]?
**A.** 57.1 µM (inactive)

**Q.** And the GI50 [32]?
**A.** 29.2 µM (inactive)

**Q.** What about the GI50 [33] of the same compound?
**A.** > 100 µM (inactive)

**Q.** And the GI50 [34]?
**A.** > 100 µM (inactive)

**Q.** What about the GI50 [35] of the same compound?
**A.** > 100 µM (inactive)

**Q.** And the GI50 [36]?
**A.** 6.17 µM (inactive)

**Q.** What about the GI50 [37] of the same compound?
**A.** 2.54 µM (inactive)

**Q.** And the GI50 [38]?
**A.** 8.83 µM (inactive)

**Q.** And the GI50 [39]?
**A.** > 100 µM (inactive)

**Q.** What about the GI50 [40] of the same compound?
**A.** > 100 µM (inactive)

**Q.** And the GI50 [41]?
**A.** 14.6 µM (inactive)

**Q.** What about the GI50 [43] of the same compound?
**A.** 37.4 µM (inactive)

**Q.** What about the GI50 [44] of the same compound?
**A.** 36 µM (inactive)

**Q.** What about the GI50 [46] of the same compound?
**A.** 15.1 µM (inactive)

**Q.** And the GI50 [47]?
**A.** > 100 µM (inactive)

**Q.** What about the GI50 [49] of the same compound?
**A.** > 100 µM (inactive)

**Q.** What about the GI50 [50] of the same compound?
**A.** 53.6 µM (inactive)

**Q.** And the GI50 [51]?
**A.** 64.7 µM (inactive)

**Q.** And the GI50 [52]?
**A.** 5.85 µM (inactive)

**Q.** And the GI50 [53]?
**A.** 28.8 µM (inactive)

**Q.** And the GI50 [54]?
**A.** 41.1 µM (inactive)

**Q.** What about the GI50 [55] of the same compound?
**A.** 6.52 µM (inactive)

**Q.** Which results are given for `COc1cccc2nc3ccccc3nc12`?
**A.** GI50 [1]: 54.7 µM (inactive); GI50 [2]: 36 µM (inactive); GI50 [3]: 39.3 µM (inactive); GI50 [4]: > 100 µM (inactive); GI50 [6]: 74.1 µM (inactive); GI50 [7]: 46.3 µM (inactive); GI50 [8]: > 100 µM (inactive); GI50 [9]: > 100 µM (inactive); GI50 [10]: 45.5 µM (inactive); GI50 [11]: 54.8 µM (inactive); GI50 [12]: 84.5 µM (inactive); GI50 [13]: 39.1 µM; GI50 [14]: 50.9 µM (inactive); GI50 [15]: 67.6 µM (inactive); GI50 [16]: 60 µM (inactive); GI50 [56]: 91.2 µM (inactive); GI50 [17]: > 100 µM (inactive); GI50 [18]: 94.6 µM (inactive); GI50 [21]: 54.2 µM (inactive); GI50 [22]: 45.8 µM (inactive); GI50 [23]: 76.9 µM (inactive); GI50 [24]: 66.1 µM (inactive); GI50 [25]: 25.3 µM (inactive); GI50 [26]: 61 µM (inactive); GI50 [27]: 80 µM (inactive); GI50 [57]: 38.8 µM (inactive); GI50 [29]: 17 µM (inactive); GI50 [30]: > 100 µM (inactive); GI50 [31]: > 100 µM (inactive); GI50 [32]: > 100 µM (inactive); GI50 [33]: 39.8 µM (inactive); GI50 [34]: 60.8 µM (inactive); GI50 [35]: 74.1 µM (inactive); GI50 [36]: 76 µM (inactive); GI50 [37]: > 100 µM (inactive); GI50 [38]: 55.5 µM (inactive); GI50 [39]: 79.4 µM (inactive); GI50 [40]: 23.8 µM (inactive); GI50 [41]: 44.1 µM (inactive); GI50 [42]: 90.2 µM (inactive); GI50 [58]: 33 µM (inactive); GI50 [43]: 86.7 µM (inactive); GI50 [44]: 25.5 µM (inactive); GI50 [45]: > 100 µM (inactive); GI50 [46]: 87.9 µM (inactive); GI50 [47]: > 100 µM (inactive); GI50 [48]: 43.4 µM (inactive); GI50 [49]: 71.4 µM (inactive); GI50 [50]: > 100 µM (inactive); GI50 [51]: > 100 µM (inactive); GI50 [52]: > 100 µM (inactive); GI50 [53]: 38.5 µM (inactive); GI50 [54]: 80.2 µM (inactive); GI50 [55]: 91 µM (inactive)
